Experimental data taken from publication PMC6950336, “Co-Occurrence of DON and Emerging Mycotoxins in Worldwide Finished Pig Feed and Their Combined Toxicity in Intestinal Cells” (Toxins, 2019).
Read-outs that look alike come from different tables or passages of the source.

Key:
IPEC-1 cells [1] = details: for Individual toxicity compared with DON: IPEC-1, 48 h, dose-effect curves; for IC50: read-out: IC50 (dose leading to a 50% reduction in cell viability); for IC50 / IC50 (dose leading to a 50% reduction in cell viability): mean ± SEM of three biological replicates; for Toxicity to intestinal cells at high concentrations: IPEC-1, concentrations of up to 300 µM
IPEC-1 cells [2] = assay: cells; details: Sus scrofa, 48 h, read-out: IC50 (dose leading to a 50% reduction in cell viability)
IPEC-J2 = details: read-out: relative IC50; cited from earlier work
[3] = test system: lymphocytes and splenocytes; details: cited from earlier work
[4] = test system: human multiple myeloma blood cells; details: cited from earlier work
Caco-2 = details: cited from earlier work
HepG2 [5] = details: cited from earlier work
THP-1 cells = details: THP-1, 2 mM; cited from earlier work
A549 = details: A549, 2 mM; cited from earlier work
HepG2 [6] = details: HepG2, 2 mM; cited from earlier work
[7] = lymphocytes and splenocytes, low doses (> 0.1µM)
[8] = ratio 3, highest concentration(s): DON 50 µM + EMO 5 µM / ENN-B 17.2 µM / BEA 2.3 µM / ENN-A1 6.5 µM, ENN-B1 6 and 18 µM

## CCC(=O)CCCCC[C@@H]1NC(=O)[C@H]2CCCCN2C(=O)[C@H]([C@@H](C)CC)NC(=O)[C@H](Cc2cn(OC)c3ccccc23)NC1=O [Apicidin]
IPEC-1 cells [1]
  Toxicity (classification from IC50 compared with DON): Highly toxic
  Toxicity of the emerging mycotoxin alone: not toxic
  Individual toxicity compared with DON: more toxic than DON
IPEC-1 cells [1]; pig
  Concentration at which toxicity was confirmed: > 500 nM
IPEC-1 cells [1]; ratio 2, doses lower than DON (5.6 µM) + API (0.09 µM)
  Toxicity of the combination of DON and the emerging mycotoxin: lower than the toxicity of DON alone, but higher than API alone
IPEC-1 cells [2]
  IC50: 1.5 ± 0.5 µM

## COC1=C(C2=C(OC)C(=O)c3cc4oc(C)cc(=O)c4c(O)c3C2=O)C(=O)c2c(cc3oc(C)cc(=O)c3c2O)C1=O [Aurofusarin]
IPEC-J2
  IC50: 9.3 µM
IPEC-1 cells [1]
  Toxicity (classification from IC50 compared with DON): Moderately toxic
  Toxicity of the emerging mycotoxin alone: minimal
  Individual toxicity compared with DON: less than that of DON
  IC50: 19.1 ± 3.4 µM

## O=C1N[C@@H](Cc2c[nH]c3ccccc23)C(=O)N2CCC[C@@H]12 [Brevianamide F]
IPEC-1 cells [1]
  Toxicity (classification from IC50 compared with DON): Non-toxic
  Toxicity to intestinal cells at high concentrations: not toxic
  IC50 (dose leading to a 50% reduction in cell viability): Non-Toxic

## O=C1N[C@@H](Cc2ccc(O)cc2)C(=O)N2CCC[C@@H]12 [Cyclo-(L-Pro-L-Tyr)]
IPEC-1 cells [1]
  Toxicity (classification from IC50 compared with DON): Non-toxic
  Toxicity to intestinal cells at high concentrations: not toxic
  IC50 (dose leading to a 50% reduction in cell viability): Non-Toxic

## CC1=C[C@H]2O[C@@H]3[C@H](O)C[C@](C)([C@@]2(CO)[C@H](O)C1=O)[C@]31CO1 [Deoxynivalenol]
IPEC-1 cells [1]
  Toxicity (classification from IC50 compared with DON): Highly toxic
  IC50: 3.2 ± 0.7 µM
[3]; [7]
  Proliferation: up to 200%

## Cc1cc(O)c2c(c1)C(=O)c1cc(O)cc(O)c1C2=O [Emodin]
[4]
  IC50: 38 µM
IPEC-J2
  IC50: 13.1 µM
IPEC-1 cells [1]
  Proliferation induced by the toxin alone: up to 130%
  Toxicity (classification from IC50 compared with DON): Moderately toxic
  Individual toxicity compared with DON: less than that of DON
IPEC-1 cells [1]; [8]
  Toxicity of the combination of DON and the emerging mycotoxin: less toxic than DON alone
IPEC-1 cells [2]
  IC50: 19 ± 0.7 µM

## CC[C@H](C)[C@H]1C(=O)O[C@H](C(C)C)C(=O)N(C)[C@@H](C(C)C)C(=O)O[C@H](C(C)C)C(=O)N(C)[C@@H](C(C)C)C(=O)O[C@H](C(C)C)C(=O)N1C [Enniatin B1]
IPEC-1 cells [1]
  Toxicity (classification from IC50 compared with DON): Moderately toxic
  Toxicity of the emerging mycotoxin alone: minimal
  Individual toxicity compared with DON: less than that of DON
IPEC-1 cells [1]; in mixture with DON, ratio 3, in general (exceptions reported separately)
  Toxicity of the combination of DON and the emerging mycotoxin: the same as the toxicity of DON alone
IPEC-1 cells [1]; ratio 2, highest concentration: DON 50 µM + ENN-B1 4.1 µM / ENN-B 3.6 µM / ENN-A1 1.7 µM
  Toxicity of the combination of DON and the emerging mycotoxin: higher than the toxicity of ENN-B1 alone, but lower than the toxicity of DON alone
IPEC-1 cells [1]; [8]
  Toxicity of the combination of DON and the emerging mycotoxin: the same as the toxicity of ENN-B1 alone, but lower than the toxicity of DON alone
IPEC-1 cells [2]
  IC50: 13.5 ± 2.5 µM

## CC(C)[C@H]1C(=O)O[C@H](C(C)C)C(=O)N(C)[C@@H](C(C)C)C(=O)O[C@H](C(C)C)C(=O)N(C)[C@@H](C(C)C)C(=O)O[C@H](C(C)C)C(=O)N1C [Enniatin B]
Caco-2
  Toxicity: no toxicity at all
IPEC-1 cells [1]
  Toxicity (classification from IC50 compared with DON): Highly toxic
  Toxicity of the emerging mycotoxin alone: not toxic
  Individual toxicity compared with DON: close to that of DON
IPEC-1 cells [1]; [8]
  Toxicity of the combination of DON and the emerging mycotoxin: lower than the toxicity of either DON alone or ENN-B alone
IPEC-1 cells [2]
  IC50: 4.4 ± 0.9 µM
HepG2 [5]
  Toxicity: no toxicity at all

## OCCc1c[nH]c2ccccc12 [Tryptophol]
THP-1 cells
  DNA damage: induced DNA damage
A549
  DNA damage: induced DNA damage
HepG2 [6]
  DNA damage: induced DNA damage
IPEC-1 cells [1]
  Toxicity (classification from IC50 compared with DON): Non-toxic
  Toxicity to intestinal cells at high concentrations: not toxic
  IC50 (dose leading to a 50% reduction in cell viability): Non-Toxic

## CCCC[C@@H](C)[C@@H](OC(=O)C[C@@H](CC(=O)O)C(=O)O)[C@H](C[C@@H](C)C[C@H](O)CCCC[C@@H](O)C[C@H](O)[C@H](C)N)OC(=O)C[C@@H](CC(=O)O)C(=O)O [fumonisin B1]
[3]; [7]
  Proliferation: up to 200%

## CC1=C[C@H]2O[C@@H]3[C@H](O)[C@@H](O)[C@](C)([C@@]2(CO)[C@H](O)C1=O)[C@]31CO1 [nivalenol]
[3]
  Proliferation: up to 200%

## Beauvericin
IPEC-1 cells [1]
  IC50: 4.3 ± 1.8 µM

## Enniatin A1
IPEC-1 cells [1]
  IC50: 1.6 ± 0.3 µM

## aflatoxin B1
[3]
  Proliferation: up to 200%
